This data set relates to CCRIS mutagenicity, Ames/micronucleus/aberration tests. The data set is described as follows: CCRIS mutagenicity studies.
The mark [1] stands for this setting: Test System: AMES SALMONELLA TYPHIMURIUM, Strain/Indicator: TA98, Metabolic Activation: NONE, Method: PREINCUBATION
Where [2] appears, read: Test System: AMES SALMONELLA TYPHIMURIUM, Strain/Indicator: TA100, Metabolic Activation: NONE, Method: PREINCUBATION
[3] abbreviates: Test System: AMES SALMONELLA TYPHIMURIUM, Strain/Indicator: TA1535, Metabolic Activation: NONE, Method: PREINCUBATION
Where [4] appears, read: Test System: AMES SALMONELLA TYPHIMURIUM, Strain/Indicator: TA98, Metabolic Activation: NONE, Method: STANDARD PLATE.

SMILES strings stand for the structures. Active and inactive are the calls of the source. How the calls were made is not given here.

With `CC(=O)Nc1cccc(O)c1`, the mutagenic call by setting is: (Test System: AMES SALMONELLA TYPHIMURIUM, Strain/Indicator: TA97, Metabolic Activation: HAMSTER, LIVER, S-9, AROCLOR 1254 (10 OR 30%), Method: PREINCUBATION) “inactive; negative”; (Test System: AMES SALMONELLA TYPHIMURIUM, Strain/Indicator: TA97, Metabolic Activation: NONE, Method: PREINCUBATION) “inactive; negative”; (Test System: AMES SALMONELLA TYPHIMURIUM, Strain/Indicator: TA97, Metabolic Activation: RAT, LIVER, S-9, AROCLOR 1254 (10 OR 30%), Method: PREINCUBATION) “inactive; negative”; (Test System: AMES SALMONELLA TYPHIMURIUM, Strain/Indicator: TA98, Metabolic Activation: HAMSTER, LIVER, S-9, AROCLOR 1254 (10 OR 30%), Method: PREINCUBATION) “inactive; negative”; under setting [1], “inactive; negative”; (Test System: AMES SALMONELLA TYPHIMURIUM, Strain/Indicator: TA98, Metabolic Activation: RAT, LIVER, S-9, AROCLOR 1254 (10 OR 30%), Method: PREINCUBATION) “inactive; negative”. Also, the mutagenic call is “inactive; negative” (Test System: AMES SALMONELLA TYPHIMURIUM, Strain/Indicator: TA100, Metabolic Activation: HAMSTER, LIVER, S-9, AROCLOR 1254 (10 OR 30%), Method: PREINCUBATION); “inactive; negative” under setting [2]; “inactive; negative” (Test System: AMES SALMONELLA TYPHIMURIUM, Strain/Indicator: TA100, Metabolic Activation: RAT, LIVER, S-9, AROCLOR 1254 (10 OR 30%), Method: PREINCUBATION); “inactive; negative” (Test System: AMES SALMONELLA TYPHIMURIUM, Strain/Indicator: TA1535, Metabolic Activation: HAMSTER, LIVER, S-9, AROCLOR 1254 (10 OR 30%), Method: PREINCUBATION); “inactive; negative” under setting [3]; “inactive; negative” (Test System: AMES SALMONELLA TYPHIMURIUM, Strain/Indicator: TA1535, Metabolic Activation: RAT, LIVER, S-9, AROCLOR 1254 (10 OR 30%), Method: PREINCUBATION).

For `C[C@H](CCC(=O)O)[C@H]1CC[C@H]2[C@@H]3C(=O)C[C@@H]4CC(=O)CC[C@]4(C)[C@H]3CC[C@]12C`, the mutagenic call is, setting by setting: (Test System: AMES SALMONELLA TYPHIMURIUM, Strain/Indicator: TA98, Metabolic Activation: NONE, Method: FLUCTUATION TEST) “inactive; negative”; under setting [1], “inactive; negative”; (Test System: AMES SALMONELLA TYPHIMURIUM, Strain/Indicator: TA98, Metabolic Activation: RAT, LIVER, S-9, PCB, Method: PREINCUBATION) “inactive; negative”; (Test System: AMES SALMONELLA TYPHIMURIUM, Strain/Indicator: TA100, Metabolic Activation: NONE, Method: FLUCTUATION TEST) “inactive; negative”.

Turning to `CCOC(=O)C1OC1(C)c1ccccc1` (stereo unspecified), the mutagenic call is, setting by setting: (End Point: IN VITRO CHROMOSOMAL ABERRATIONS, Test System: CHINESE HAMSTER OVARY CELLS, Metabolic Activation: NONE) “active; positive; statistically significant increase, but not dose-related”; (End Point: IN VITRO CHROMOSOMAL ABERRATIONS, Test System: CHINESE HAMSTER OVARY CELLS, Metabolic Activation: RAT, LIVER, S-9, AROCLOR 1254) “active; positive”; (Test System: AMES SALMONELLA TYPHIMURIUM, Strain/Indicator: TA98, Metabolic Activation: HAMSTER, LIVER, S-9, AROCLOR 1254 (10%), Method: PREINCUBATION) “inactive; negative”; under setting [1], “inactive; negative”; (Test System: AMES SALMONELLA TYPHIMURIUM, Strain/Indicator: TA98, Metabolic Activation: RAT, LIVER, S-9, AROCLOR 1254 (10%), Method: PREINCUBATION) “inactive; negative”; (Test System: AMES SALMONELLA TYPHIMURIUM, Strain/Indicator: TA100, Metabolic Activation: HAMSTER, LIVER, S-9, AROCLOR 1254 (10%), Method: PREINCUBATION) “inactive; negative”. In addition, the mutagenic call by setting is: under setting [2], “inactive; negative”; (Test System: AMES SALMONELLA TYPHIMURIUM, Strain/Indicator: TA100, Metabolic Activation: RAT, LIVER, S-9, AROCLOR 1254 (10%), Method: PREINCUBATION) “inactive; negative”; (Test System: AMES SALMONELLA TYPHIMURIUM, Strain/Indicator: TA1535, Metabolic Activation: HAMSTER, LIVER, S-9, AROCLOR 1254 (10%), Method: PREINCUBATION) “inactive; negative”; under setting [3], “inactive; negative”; (Test System: AMES SALMONELLA TYPHIMURIUM, Strain/Indicator: TA1535, Metabolic Activation: RAT, LIVER, S-9, AROCLOR 1254 (10%), Method: PREINCUBATION) “inactive; negative”; (Test System: AMES SALMONELLA TYPHIMURIUM, Strain/Indicator: TA1537, Metabolic Activation: HAMSTER, LIVER, S-9, AROCLOR 1254 (10%), Method: PREINCUBATION) “inactive; negative”. For the same molecule, the mutagenic call is “inactive; negative” (Test System: AMES SALMONELLA TYPHIMURIUM, Strain/Indicator: TA1537, Metabolic Activation: NONE, Method: PREINCUBATION) and “inactive; negative” (Test System: AMES SALMONELLA TYPHIMURIUM, Strain/Indicator: TA1537, Metabolic Activation: RAT, LIVER, S-9, AROCLOR 1254 (10%), Method: PREINCUBATION).

`O=[N+]([O-])c1cc2cc3ccc4cccc5ccc(c2o1)c3c45`: the mutagenic call runs as follows: (Test System: AMES SALMONELLA TYPHIMURIUM, Strain/Indicator: TA98(NR), Metabolic Activation: NONE, Method: STANDARD PLATE) “active; positive”; (Test System: AMES SALMONELLA TYPHIMURIUM, Strain/Indicator: TA98(NR), Metabolic Activation: RAT, LIVER, S-9, AROCLOR 1254, Method: STANDARD PLATE) “active; positive”; under setting [4], “active; positive”; (Test System: AMES SALMONELLA TYPHIMURIUM, Strain/Indicator: TA98, Metabolic Activation: RAT, LIVER, S-9, AROCLOR 1254, Method: STANDARD PLATE) “active; positive”.

As for `C=C1/C(=C\C=C2/CCC[C@]3(C)[C@@H]([C@H](C)CC[C@@H](O)C(C)C)CC[C@@H]23)C[C@@H](O)C[C@@H]1O`, the mutagenic call under setting [4] was “inactive; negative”; the mutagenic call (Test System: AMES SALMONELLA TYPHIMURIUM, Strain/Indicator: TA98, Metabolic Activation: RAT, LIVER, S-9, PHENOBARBITAL AND 5,6-BENZOFLAVONE, Method: PREINCUBATION) is “inactive; negative”; the mutagenic call (Test System: AMES SALMONELLA TYPHIMURIUM, Strain/Indicator: TA100, Metabolic Activation: NONE, Method: STANDARD PLATE) was “inactive; negative”; the mutagenic call (Test System: AMES SALMONELLA TYPHIMURIUM, Strain/Indicator: TA100, Metabolic Activation: RAT, LIVER, S-9, PHENOBARBITAL AND 5,6-BENZOFLAVONE, Method: PREINCUBATION) is “inactive; negative”; the mutagenic call (Test System: AMES SALMONELLA TYPHIMURIUM, Strain/Indicator: TA1535, Metabolic Activation: NONE, Method: STANDARD PLATE) was “inactive; negative”; the mutagenic call (Test System: AMES SALMONELLA TYPHIMURIUM, Strain/Indicator: TA1535, Metabolic Activation: RAT, LIVER, S-9, PHENOBARBITAL AND 5,6-BENZOFLAVONE, Method: PREINCUBATION) is “inactive; negative”. Besides, the mutagenic call was “inactive; negative” (Test System: AMES SALMONELLA TYPHIMURIUM, Strain/Indicator: TA1537, Metabolic Activation: NONE, Method: STANDARD PLATE); “inactive; negative” (Test System: AMES SALMONELLA TYPHIMURIUM, Strain/Indicator: TA1537, Metabolic Activation: RAT, LIVER, S-9, PHENOBARBITAL AND 5,6-BENZOFLAVONE, Method: PREINCUBATION); “inactive; negative” (Test System: AMES SALMONELLA TYPHIMURIUM, Strain/Indicator: TA1538, Metabolic Activation: NONE, Method: STANDARD PLATE); “inactive; negative” (Test System: AMES SALMONELLA TYPHIMURIUM, Strain/Indicator: TA1538, Metabolic Activation: RAT, LIVER, S-9, PHENOBARBITAL AND 5,6-BENZOFLAVONE, Method: PREINCUBATION); “inactive; negative” (Test System: E. COLI, Strain/Indicator: WP2 UVRA, Metabolic Activation: NONE, Method: STANDARD PLATE); “inactive; negative” (Test System: E. COLI, Strain/Indicator: WP2 UVRA, Metabolic Activation: RAT, LIVER, S-9, PHENOBARBITAL AND 5,6-BENZOFLAVONE, Method: PREINCUBATION).

The values are drawn from PubChem BioAssay AID1259407 (Chemical Carcinogenesis Research Information System (CCRIS), 2018).
